Experiments:
[1] = test system: SUM-159 cells; assay: Cell viability assay (CCK-8), IC50; format: cell-based; conditions: Homo sapiens, SUM159, 6 days, medium replenished every 2 days
Description: (§1) Human breast cancer cell lines MDA-MB-231 and SUM-159, and human ovarian cancer cell lines OVCAR5 and SKOV3 were obtained from the American Type Culture Collection (ATCC). MDA-MB-231 cells were cultured in L-15 medium with 10% fetal bovine serum (FBS), incubated at 37 °C in a humidified incubator without additional CO2. SUM-159 cells were maintained in Dulbecco’s modified Eagle’s medium (DMEM) containing 10% FBS, and OVCAR5 and SKOV3 cells were incubated in Roswell Park Memorial Institute (RPMI)-1640 medium with 10% FBS and cultured at 37 °C in a humidified incubator containing 5% CO2.
(§2) Cell viability assay was performed as described before. Briefly, 2500/well of breast or ovarian cancer cells were seeded into a 96-well plate; grown overnight; treated with indicated concentration of Olaparib, LY2835219, ZC22, LP-1, GC-24, or cisplatin alone or together for an indicated amount of time; and then incubated with Cell Counting kit-8 (CCK-8) substrate (Dojindo, Kumamoto, Kyushu Island, Japan) for 1–2 h at 37 °C. Cell viability was calculated by the absorbance at 450 nm measured by the GloMax Explorer (Promega, Madison, WI, USA). Cells without treatment were set as 100%, and medium control (no cells) was set as 0%.
(§3) Figure 1 Synthesis strategy and activity assay of the novel compounds targeting both PARP and CDK4/6. (A) Synthesis strategy of the three novel compounds GC-24, LP-1, and ZC-22. (B) IC50 of GC-24, LP-1, and ZC-22 in breast and ovarian cancer cells. Cells were treated with increasing concentrations of GC-24, LP 1, or ZC-22 for 6 days with replenishment of medium every 2 days. Cell proliferation was analyzed by CCK-8 assays. (C) The reagents and conditions used for the chemical synthesis of ZC-22 in this study: (a) Pd(AcO)2, BINAP, CS2CO3, 1,4-Dioxane, 100 °C, 12 h; (b) CF3COOH, DCM, Room temperature, 6 h; (c) HOBt, EDCI, DIPEA, DMF, Room temperature, 12 h. TEXT PRINTED IN THE PICTURE: (B) LP-1: MDA-MB-231 IC50 (μM): >50; SUM-159 IC50 (μM): 7.780; OVCAR5 IC50 (μM): 10.11; SKOV3 IC50 (μM): 10.16 | (B) GC-24: MDA-MB-231 IC50 (μM): 33.77; SUM-159 IC50 (μM): 17.77; OVCAR5 IC50 (μM): 26.08; SKOV3 IC50 (μM): >50 | (B) ZC-22: MDA-MB-231 IC50 (μM): 3.608; SUM-159 IC50 (μM): 0.435; OVCAR5 IC50 (μM): 0.758; SKOV3 IC50 (μM): 0.542
(§4) Figure 2 ZC-22 suppresses proliferation of breast and ovarian cancer cells. (A) IC50 of ZC-22, Olaparib, and LY2835219 (Abemaciclib) in breast and ovarian cancer cells. Cells were treated with increasing concentrations of ZC-22, Olaparib, or LY2835219 for 6 days with replenishment of medium every 2 days. Cell proliferation was analyzed by CCK-8 assays. (B) Cell proliferation assay of breast and ovarian cancer cells with indicated treatment. MDA-MB-231 cells were treated with 2 μM Olaparib (OLA) or LY2835219 (LY-2) alone or together (OLA + LY-2) or with ZC-22 alone for 48 or 72 h. SUM-159, OVCAR5, and SKOV3 cells were treated with 0.5 μM OLA or LY-2 alone or together or with ZC-22 alone. Cell proliferation assay was analyzed by CCK-8 assays. Values are means ± SD, n = 3. ns, not significant, * p < 0.05, ** p < 0.01 and *** p < 0.001 for comparisons with the DMSO-treated group using an unpaired t-test. TEXT PRINTED IN THE PICTURE: (A) ZC-22: MDA-MB-231 IC50 (μM): 3.608; SUM-159 IC50 (μM): 0.435; OVCAR5 IC50 (μM): 0.758; SKOV3 IC50 (μM): 0.542 | (A) LY2835219: MDA-MB-231 IC50 (μM): 11.28; SUM-159 IC50 (μM): 0.664; OVCAR5 IC50 (μM): 9.791; SKOV3 IC50 (μM): 1.158 | (A) Olaparib: MDA-MB-231 IC50 (μM): 32.13; SUM-159 IC50 (μM): 19.29; OVCAR5 IC50 (μM): 30.51; SKOV3 IC50 (μM): >50

[2] = test system: SKOV3 cells; assay: Cell viability assay (CCK-8), IC50; format: cell-based; conditions: Homo sapiens, SK-OV-3, 6 days, medium replenished every 2 days
Description: as §1, §2, §3, §4

[3] = test system: MDA-MB-231 cells; assay: Cell viability assay (CCK-8), IC50; format: cell-based; conditions: Homo sapiens, 6 days, medium replenished every 2 days
Description: as §1, §2, §3, §4

[4] = test system: OVCAR5 cells; assay: Cell viability assay (CCK-8), IC50; format: cell-based; conditions: Homo sapiens, OVCAR-5, 6 days, medium replenished every 2 days
Description: as §1, §2, §3, §4

[5] = test system: MDA-MB-231 xenograft tumors; assay: Breast cancer xenograft mouse model, tumor growth; format: in vivo, mice; conditions: 1.5 mg/kg cisplatin or 50 mg/kg ZC-22 ip alone or together
Description: Six-week-old female athymic nude mice (Homozygous) were purchase from Vital River Laboratories (Beijing, China) and maintained under the guidelines for laboratory animals of Nankai university (NKU). Mice were injected subcutaneously with 2 × 10^6 MDA-MB-231 or 8 × 10^6 OVCAR5 cells. When tumors were 50–100 mm^3 in size, the mice were randomly grouped and treated intraperitoneal (i.p.) with 50 mg/kg of Olaparib, 50 mg/kg of LY2835219, 50 mg/kg of ZC-22, or 1.5 mg/kg of cisplatin alone or in combinations or with the vehicle (PBS containing 10% DMSO and 10% 2-hydroxy-propyl-β-cyclodextrin) every 2 days. Tumor volume was measured every 3–4 days, which was calculated as Length × Width^2/2. At the end of the study, tumor and major organ tissues were harvested by surgery. For histopathological analysis, tissue samples were washed with PBS, fixed in 4% paraformaldehyde (PFA), paraffin-embedded, and sectioned into 7 μm thickness. For Western blot analysis, the tissue samples were dissociated by a tissue-tearor in RIPA buffer containing 1×protease and phosphatase inhibitors.
Figure 4 ZC-22 suppresses growth of breast cancer xenografts. Female NOD-SCID mice were injected subcutaneously with 2 × 10^6 of MDA-MB-231 cells and treated ip daily with 50 mg/kg of Olaparib (OLA) or LY2835219 (LY-2) alone or together (OLA + LY-2) or with ZC-22 alone starting on day 10 after injection of cells when tumors were 50–80 mm^3 in size. Tumor volumes were measured every 2–3 days. […] (B,C) Pictures of (B) and quantification of the size of (C) the MDA-MB-231 xenograft tumors at the end points. […] (E) Quantification of Ki67 (Left) and γH2A.X (Right)-positive cells in immunohistochemical staining of the xenograft tumor tissues. […]
Figure 6 ZC-22 sensitizes breast cancer cells to cisplatin treatment in vivo. […] Tumor volumes were measured every 2–3 days. […] (B,C) Pictures (B) and quantification of the size (C) of the MDA-MB-231 xenograft tumors at the end points. […] (E) Quantification of Ki67 (left) and γH2A.X (right)-positive cells in immunohistochemical staining of the xenograft tumor tissues. […]

Row | SMILES | IC50 [1] | IC50 [2] | IC50 [3] | IC50 [4] | growth of the xenograft tumors [5]
1 | CC(=O)c1c(C)c2cnc(Nc3ccc(N4CCN(C(=O)c5cc(Cc6n[nH]c(=O)c7ccccc67)ccc5F)CC4)cn3)nc2n(C2CCCC2)c1=O [GC-24] | 17.8 µM | > 50 µM | 33.8 µM | 26.1 µM | –
2 | CN(C)C(=O)c1cc2cnc(Nc3ccc(N4CCN(C(=O)c5cc(Cc6n[nH]c(=O)c7ccccc67)ccc5F)CC4)cn3)nc2n1C1CCCC1 [LP-1] | 7.78 µM | 10.2 µM | > 50 µM | 10.1 µM | –
3 | O=C(c1cc(Cc2n[nH]c(=O)c3ccccc23)ccc1F)N1CCN(C(=O)C2CC2)CC1 [Olaparib, reference compound] | 19.3 µM | > 50 µM | 32.1 µM | 30.5 µM | –
4 | N.N.[Cl][Pt][Cl] [cisplatin] | – | – | – | – | effectively inhibit growth of the xenograft tumors

Reference: article PMC8911181, “A Novel CDK4/6 and PARP Dual Inhibitor ZC-22 Effectively Suppresses Tumor Growth and Improves the Response to Cisplatin Treatment in Breast and Ovarian Cancer” (International Journal of Molecular Sciences, 2022)
